From patent US20250161332A1, “NON-PSYCHOACTIVE MULTI-CANNABINOID AND POLYSACCHARIDE AND POLYSACCHAROPEPTIDE-BASED THERAPEUTIC COMPOSITIONS AND METHODS OF THEIR ADMINISTRATIO” (Pebble Global Holdings, priority 2021, published 2025)

Legend:
[1] = cited from earlier work; for circulating metabolite as percent of the parent based on plasma AUC of cannabidiol: in vivo
[2] = tested on: animal models of epilepsy; settings: in vivo; cited from earlier work
[3] = tested on: ovarian cancer cell lines; assay: Cell viability assay (tetrazolium to formazan), 10 ovarian cancer cell lines; assay type: cell-based; settings: 72 h
Source text: Synergistic relationships for combinations of terpenoids and cannabinoids have been reported Russo, E. B. and J. Marcu, Chapter Three—Cannabis Pharmacology: The Usual Suspects and a Few Promising Leads, in Advances in Pharmacology, D. Kendall and S. P. H. Alexander, Editors. 2017, Academic Press. p. 67-134, the entire disclosure of which is incorporated herein by reference This observed synergy was strongly dependent on the ratio and origin of terpenoids, as shown in triple negative breast cancer models. In addition, many cannabinoids and terpenoids are immune suppressors as reported for alpha-bisabolol, which activates TGF to promote the differentiation of macrophages into the M2 phenotype (tumor promoting) and regulatory T cells. Ovarian cancer cell lines tested included A2780ip2, A2780CP20, HeyA8, HeyA8-MDR, SKOV3 and OVCAR3 and were maintained in RPMI 1640 supplemented with 10-15% fetal bovine serum and 0.1% gentamicin sulfate (available from Gemini Bioproducts, Calabasas, CA, USA). OVCAR5 cells were maintained in Dulbecco's modified Eagle's medium with 10% fetal bovine serum and 0.1% gentamicin sulfate. 1D8 murine ovarian cancer cells were maintained in Dulbecco modified
Eagle medium containing 10% fetal bovine serum (FBS), lx insulin-transferrin-selenium (available from Thermo Fisher Scientific, Waltham, MA), and 0.5% gentamicin. All above cells were cultured at 37° C. using a 5% C02 incubator. All in vitro experiments were performed with 70-80% confluent cultures and a passage number […].
Example 7. Cell viability assays. Cell viability assays were performed by testing ovarian cancer cells' metabolic ability to reduce the tetrazolium salt 3-(4,5-dimethylthiazol-2-yl)-5-(3-carboxymethoxyphenyl)-2-(4-sulfophenyl)-2H-tetrazolium (inner salt) to a formazan. […] Activities for each reagent were determined using Hill plot analyses (Graphpad Prism 8 software) to assess the half maximal effect—ICso. Results. […]

[4] = target: T1, 5 HT1A receptor (Homo sapiens, UniProt P08908); settings: cited from earlier work
T1 sequence (P08908 1-422): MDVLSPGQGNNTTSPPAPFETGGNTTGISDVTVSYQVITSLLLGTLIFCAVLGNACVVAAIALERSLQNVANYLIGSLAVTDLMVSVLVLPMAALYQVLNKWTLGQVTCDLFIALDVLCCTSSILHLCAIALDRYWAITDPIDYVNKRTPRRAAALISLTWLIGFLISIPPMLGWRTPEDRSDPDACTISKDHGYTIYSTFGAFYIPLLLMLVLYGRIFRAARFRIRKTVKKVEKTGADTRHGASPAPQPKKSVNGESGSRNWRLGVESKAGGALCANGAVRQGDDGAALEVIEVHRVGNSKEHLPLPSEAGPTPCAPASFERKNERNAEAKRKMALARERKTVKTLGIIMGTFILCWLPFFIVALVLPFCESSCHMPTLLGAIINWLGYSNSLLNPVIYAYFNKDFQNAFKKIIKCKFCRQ

[5] = target: CB2 (Homo sapiens, UniProt P34972); settings: cited from earlier work
CB2, sequence (P34972 whole entry, species assumed): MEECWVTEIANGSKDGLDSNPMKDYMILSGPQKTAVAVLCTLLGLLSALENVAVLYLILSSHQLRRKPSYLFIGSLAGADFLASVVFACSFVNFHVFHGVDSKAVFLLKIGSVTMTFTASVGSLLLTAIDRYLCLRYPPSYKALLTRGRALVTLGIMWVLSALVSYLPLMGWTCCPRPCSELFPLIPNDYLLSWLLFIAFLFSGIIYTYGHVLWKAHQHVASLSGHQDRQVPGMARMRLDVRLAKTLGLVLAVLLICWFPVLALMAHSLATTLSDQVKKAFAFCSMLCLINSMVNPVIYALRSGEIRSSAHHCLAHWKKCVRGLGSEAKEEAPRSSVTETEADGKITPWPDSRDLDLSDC

[6] = tested on: OVCAR5 Luc; assay: In vivo dose finding and efficacy study, orthotopic xenograft model for ovarian cancer; design: species or system nude mice
Method: Example 10. In vivo dose finding and efficacy study. The purpose of this study was to determine the safety and efficacy of single agent CBD and annelix in an orthotopic xenograft model for ovarian cancer. This mouse model resembles the disease of ovarian cancer in humans with development of tumor nodules in the abdominal cavity and development of ascites. Method. Luciferase transfected human ovarian tumor cells, OVCAR5 Luc (1.0 million) were injected into the peritoneal cavity of nude mice, intra peritoneally (i.p.). On day 8 after tumor cell injection IVIS® optical imaging was performed to confirm tumor establishment. […] The study was an approved protocol of the MD Anderson Cancer Center (MDACC) Institutional Animal Care and Use Committee (IACUC). […] Mice were sacrificed on day 32 (post inoculation of cells) and tumors were harvested. Body weights, tumor weight, number of tumor nodules and ascites volumes were recorded. Results: The body weights, tumor weights, tumor nodules and ascites volumes for each of the treatment groups are shown in FIG. 4. […] Control mice received corn oil injections. Body weights were not affected by either the dose of annelix (aq.), nor by the dose of CBD in this study.

[7] = tested on: A2780 and OVCAR5; assay: Reverse Phase Protein Array (RPPA) and Ingenuity Pathway Analysis; assay type: cell-based; settings: 5 μM (CBD content)
Source text: Example 11. Protein Expression Level Effects. […] Results.

[8] = target: GPR55 (Homo sapiens, UniProt Q9Y2T6); settings: cited from earlier work
GPR55, sequence (Q9Y2T6 whole entry, species assumed): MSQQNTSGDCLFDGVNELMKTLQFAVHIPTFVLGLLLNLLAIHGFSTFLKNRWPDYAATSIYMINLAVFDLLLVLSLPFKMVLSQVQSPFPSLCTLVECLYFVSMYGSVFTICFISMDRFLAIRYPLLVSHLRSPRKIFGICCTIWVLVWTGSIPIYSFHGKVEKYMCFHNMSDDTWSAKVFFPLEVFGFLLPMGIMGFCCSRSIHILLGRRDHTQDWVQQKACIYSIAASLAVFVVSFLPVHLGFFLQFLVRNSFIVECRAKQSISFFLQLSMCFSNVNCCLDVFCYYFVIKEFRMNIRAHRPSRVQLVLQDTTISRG

[9] = tested on: ALL; settings: cited from earlier work
[10] = tested on: normal endothelial cells; settings: cited from earlier work
[11] = tested on: leukemia (P388), liver cancer (HepG2), skin melanoma (B16-F10), and myelogenous leukemia (K562); settings: range over the four cell lines; cited from earlier work
[12] = tested on: B16-F10 melanoma; settings: cited from earlier work
[13] = treatment regimens, cited from earlier work; for nausea and gastrointestinal (GI) AEs, occurrence: single agents

C=C(C)[C@@H]1C[C@H](O)C(C)=C[C@H]1c1c(O)cc(CCCCC)cc1O [6-OH-CBD, 6-hydroxy-cannabidiol]
circulating metabolite as percent of the parent based on plasma AUC of cannabidiol [1]: < 10%

C=C(C)[C@@H]1CCC(C(=O)O)=C[C@H]1c1c(O)cc(CCCCC)cc1O [7-COOH-CBD, 7-carboxy-cannabidiol]
activity [2]: inactive | circulating metabolite level relative to parent ([1]; higher than the parent cannabidiol): approximately 40 fold

C=C(C)[C@@H]1CCC(CO)=C[C@H]1c1c(O)cc(CCCCC)cc1O [7-OH-CBD, 7-hydroxy-cannabidiol]
activity [2]: equipotent and active | circulating metabolite as percent of the parent based on plasma AUC of cannabidiol [1]: approximately 38%

CCCCCc1cc(O)c2c(c1)OC(C)(CCC=C(C)C)C=C2 (stereo not drawn) [CBC, cannabichromene]
IC50 [3]: 25.9 to 49.9 µM

C=C(C)[C@@H]1CCC(C)=C[C@H]1c1c(O)cc(CCCCC)cc1O [CBD, cannabidiol]
mode of action at 5 HT1A receptor [4]: agonist | activity [2]: equipotent and active | affinity for CB2 receptor [5]: little affinity | enzymes primarily metabolizing ([1]; liver and gut): CYP2C19, CYP3A4, and UGT1A7, UGT1A9, and UGT2B7 | tumor burden compared to control group ([6]; 50 mg/kg i.p.): reduction in tumor burden | ascites volume ([6]; 50 mg/kg i.p., statistical significance not reached): controlled | body weights ([6]; 1, 10 and 50 mg/kg based on CBD content, i.p., 3 times per week until day 32): not affected | tolerability / adverse effects ([6]; 1, 10 and 50 mg/kg, i.p., 3 times per week until day 32): well tolerated and did not cause any adverse effects | most affected pathways versus DMSO ([7]; 8 and 24 hours): HER-2 signaling in breast cancer, PI3/AKT signaling, molecular mechanisms of cancer, systemic lupus erythematosus in B cell signaling pathway, and autophagy | most upstream regulators ([7]; 8 and 24 hours): p53, AKT, E2F1, beta-estradiol and ERBB2 | cell cycle checkpoint and DNA damage repair pathway proteins (Weel, CDC25, Rad51, chkl, ATR, ATM and p53) ([7]; compared to DMSO control): very few proteins, including ATR and CDC25, were downregulated | mode of action at GPR55 [8]: antagonist | IC50 [3]: 7.8 to 14.7 µM

CCCCCc1cc(O)c(C/C=C(\C)CCC=C(C)C)c(O)c1 [CBG, cannabigerol]
IC50 [3]: 17 to 35 µM

CC(C)=CCC[C@](C)(O)[C@@H]1CC=C(C)CC1 [alpha-bisabolol, (2S)-6-Methyl-2-[(1S)-4-methylcyclohex-3-en-1-yl]hept-5-en-2-ol]
IC50 [9]: 73 µM | IC50 [10]: 5 µM

CC1=CC=C(C(C)C)CC1 [alpha-terpinene, 1-Isopropyl-4-methyl-1,3-cyclohexadiene]
IC50 [11]: 60 to 180 µM

C=C1C2CCC(C2)C1(C)C (stereo not drawn) [camphene, 2,2-Dimethyl-3-methyllidenebicyclo[2.2.1]heptane]
IC50 [12]: 529 µM

N.N.[Cl][Pt][Cl] [cisplatinum]
Neuropathy and neurological symptoms, occurrence [13]: 94%

Nc1ccn([C@@H]2O[C@H](CO)[C@@H](O)C2(F)F)c(=O)n1 [gemcitabine]
nausea and gastrointestinal (GI) AEs, occurrence [13]: 69%

CC[C@@]1(O)C(=O)OCc2c1cc1n(c2=O)Cc2cc3c(CN(C)C)c(O)ccc3nc2-1 [topotecan]
nausea and gastrointestinal (GI) AEs, occurrence [13]: 63%
